The values that follow are results of earlier work, collected in US20050070514A1, “Therapies for treating respiratory diseases” (priority 2001, published 2005).

The conditions of the data set: developed as an antidepressant.

As for `COc1ccc(C2CNC(=O)C2)cc1OC1CCCC1` (stereo not shown) [rolipram], the “side effects in clinical studies” value was “has psychotropic activity and produces gastrointestinal effects, e.g., pyrosis, nausea and emesis”.
